Where two headings read alike, the source gives them in different places.

A short description of series [1]: Pharmacokinetic / brain permeability study, LC-MS/MS of brain and plasma. To be noted: C57BL/6J, mouse, mice, 100 mg/kg oral gavage. Type of series: in vivo, C57BL6 mice. Here is the method:
(§1) Brain permeability and target engagement studies were conducted in C57BL/6J mice. […] Drug level evaluation in brain and plasma samples was performed by LC-MS/MS analysis. Brain tissue was homogenized and nSMase2 activity measured as described above.

In the next series the target is T1, nSMase2 (Mus musculus, UniProt Q9JJY3).
T1 construct: from tissue; host or cells: mouse brain (cortical homogenate)
T1 sequence (Q9JJY3 1-655): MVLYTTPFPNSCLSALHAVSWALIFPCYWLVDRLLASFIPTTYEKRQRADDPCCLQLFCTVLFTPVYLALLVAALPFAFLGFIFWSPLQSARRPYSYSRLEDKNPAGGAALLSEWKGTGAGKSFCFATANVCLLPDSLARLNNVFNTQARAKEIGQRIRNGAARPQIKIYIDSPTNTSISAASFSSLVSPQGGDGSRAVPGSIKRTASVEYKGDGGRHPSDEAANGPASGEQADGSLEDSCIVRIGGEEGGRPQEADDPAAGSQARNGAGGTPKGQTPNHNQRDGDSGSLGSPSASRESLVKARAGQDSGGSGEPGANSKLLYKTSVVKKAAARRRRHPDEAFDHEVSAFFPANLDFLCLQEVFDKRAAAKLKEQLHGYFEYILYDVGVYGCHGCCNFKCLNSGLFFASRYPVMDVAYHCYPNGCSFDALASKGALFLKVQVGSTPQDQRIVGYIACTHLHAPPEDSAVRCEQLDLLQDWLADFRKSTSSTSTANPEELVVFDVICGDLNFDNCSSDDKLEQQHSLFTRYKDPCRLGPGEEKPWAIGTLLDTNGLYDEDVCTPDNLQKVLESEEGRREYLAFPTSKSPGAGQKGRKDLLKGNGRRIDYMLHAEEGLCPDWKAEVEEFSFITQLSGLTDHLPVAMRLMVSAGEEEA
The experiment in a line: Target engagement: nSMase activity in brain homogenates of treated mice. To be noted: 100 mg/kg oral gavage, 4 hours. Type of series: in vivo, C57BL6 mice. Here is the method: Alternatively, mice were treated with the compounds by a parental route and after euthanization the brain is removed and homogenized using 100 mM Tris-HCl pH 7.5, 100 mM sucrose, 100 μM PMSF, 1× protease inhibitor cocktail, and diluted to 2× in reaction buffer prior to the assay and nSMase2 activity is measured. The reaction was started by adding 10 μL of the working solution (100 μM Amplex Red reagent containing 2 U/mL HRP, 0.2 U/mL choline oxidase, 8 U/mL of alkaline phosphatase, and 0.5 mM sphingomyelin) and the progression of the reaction was monitored at 540/590 nm (Ex/Em) for 2 h at 37° C. The activity of nSMase2 at 2 hrs was plotted as percentage of control using PrismGraphPad.
as §1

The next series has as its system Thy1-aSyn mice. The experiment in a line: Initial efficacy in Thy1-aSyn mice, aSyn immunofluorescence in substantia nigra. The class given is in vivo. Particulars: Thy-1 aSyn mice, 100 mg/kg/day oral, 5 weeks. Here is the method: Mice overexpressing human wild-type a-synuclein under control of the Thy-1 promoter (Thy1-aSyn mice) and control C57B1/6 mice were housed under a 12-hour light/dark cycle and had access to standard chow ad libitum. […] Two hours after the last dose, mice were euthanized by ketamine/xylazine over-anesthesia followed by cardiac puncture and saline transcardial perfusion. Brain tissue from individual mice were dissected.
All staining procedures and data collection were performed by investigators blinded to treatment. Double-immunofluorescence for Clone 42 Anti-aSyn/TH in SN (substantia nigra). Analysis of a-synuclein and tyrosine hydroxylase (TH, the marker of dopaminergic neurons) levels was performed in serially sectioned, free-floating vibratome sections. […]
For the quantification of aSyn and TH fluorescent immunolabeling images of immunofluorescence-labeled sections were acquired using an Agilent (Santa Clara, Calif.) microarray scanner equipped with a krypton/argon laser (647 nm) at 10 μm resolution with the photomultiplier tube set at 5% for aSyn and 10% for TH. Immunofluorescence intensity was measured using ImageJ in the appropriate region of interest. TH staining was quantified in the SN pars compact and SN pars reticulate. […]

On to `O=c1[nH]c(=S)[nH]c(-c2ccccc2)c1Cc1c(O)ccc2ccccc12` [cambinol], for which the concentration at 4 h was found to be 135 ± 60.9 ng/g in series [1] (brain, read-out: level in brain) and 8150 ± 2450 ng/mL in series [1] (plasma, read-out: level in plasma). Besides, the “inhibition (decrease) of nSMase activity in brain/cortical homogenates vs vehicle” value against nSMase2 is on record as 26.8%. In addition, the “aSyn levels in the substantia nigra (SN)” value in the series with Thy1-aSyn mice is recorded as “trend to decrease”.

Source of the values: patent publication US20200270216A1, “COMPOSITIONS AND METHODS FOR INHIBITING N-SMASE2” (The Regents of the University of California, priority 2017, published 2020).
